27 compounds from ChEMBL document CHEMBL4483862, “Open-source discovery of chemical leads for next-generation chemoprotective antimalarials” (2018) can be followed below.

This assay concerns Plasmodium berghei. Kind of assay: Luciferase/luciferin-expressing antifolate-resistant parasites were used to infect a culture of HepG2 cells that were pre-incubated with compounds. Infected hepatocytes emit light due to the luciferase reaction. Assay results are presented as the percent inhibition of light emission compared to control. […]. It is filed as functional. To be noted: sporozoite; for IC90: read-out: LUCIFERASE INFECTION ASSAY - IC90.

The mark [1] stands for this setting: read-out: LUCIFERASE INFECTION ASSAY - IC50.

By IC50 is commonly meant the concentration that gives 50% inhibition. In general, IC90 refers to the point of the concentration-response curve where the effect stands at 90%. `COc1ccc(Sc2ccc([N+](=O)[O-])c3nonc23)cc1`: the IC90 amounted to 10.7 µM. In addition, the 50% inhibitory concentration (IC50) (FFLUC_HILL_SLOPE 14.3, FFLUC_R_SQUARED 0.436, HEPG2TOX_HILL_SLOPE 9.62, HEPG2TOX_R_SQUARED 0.82, PBLUC_HILL_SLOPE 22.9, PBLUC_R_SQUARED 0.553, read-out: LUCIFERASE INFECTION ASSAY - IC50) stood at 9.76 µM.

For `COc1ccc(-n2c(C)cc(C(=O)CSc3nc4c(n3-c3ccccc3)CCCC4)c2C)cc1`, the concentration for an effect of 90% (IC90) was greater than 10 µM. The IC50 under setting [1] is greater than 10 µM.

Regarding `CS(=O)(=O)Nc1ccc(-c2csc(NC(=O)c3ccc(CN4CCCCC4)cc3)n2)cc1`, the IC90 is greater than 10 µM. For the same compound, the IC50 (PBLUC_HILL_SLOPE 15.3, PBLUC_R_SQUARED 0.202, read-out: LUCIFERASE INFECTION ASSAY - IC50) was determined as 9.15 µM.

As for `COc1cccc(-c2cn3c(-c4ccccc4)cnc3cn2)c1F`, the IC90 came to 10.2 µM. Under “PBLUC_HILL_SLOPE 10.4, PBLUC_R_SQUARED 0.353, read-out: LUCIFERASE INFECTION ASSAY - IC50”, the IC50 was determined as 8.27 µM.

With `Clc1ccccc1-c1nc2ccnc(NCc3ccccc3)c2[nH]1`, the IC90 stood at 4.04 µM. Also, the IC50 (HEPG2TOX_HILL_SLOPE 1.64, HEPG2TOX_R_SQUARED 0.835, PBLUC_HILL_SLOPE 9.56, PBLUC_R_SQUARED 0.749, read-out: LUCIFERASE INFECTION ASSAY - IC50) is 3.21 µM.

For the compound `Cn1c(C(C#N)c2nc(C#N)c(C#N)nc2Cl)nc2ccccc21` (centres undefined), the IC90 was greater than 10 µM. For the same compound, the 50% inhibitory concentration (IC50) (FFLUC_HILL_SLOPE 16, FFLUC_R_SQUARED 0.432, read-out: LUCIFERASE INFECTION ASSAY - IC50) was greater than 10 µM.

Consider `CCN(c1ccc(-c2csc(Nc3ccc4c(c3)OCCO4)n2)cc1)S(C)(=O)=O`, for which the IC90 was 5.7 µM. The IC50 (FFLUC_HILL_SLOPE 1.56, FFLUC_R_SQUARED 0.608, HEPG2TOX_HILL_SLOPE 4.65, HEPG2TOX_R_SQUARED 0.413, PBLUC_HILL_SLOPE 3.4, PBLUC_R_SQUARED 0.614, read-out: LUCIFERASE INFECTION ASSAY - IC50) was 2.99 µM.

Regarding `CCC(C(=O)Nc1nc2ccccn2c1C(=O)NC1CCCCC1)c1ccccc1` (centres undefined), the IC90 is greater than 8.16 µM. For the same compound, the IC50 (PBLUC_HILL_SLOPE 15.5, PBLUC_R_SQUARED 0.112, read-out: LUCIFERASE INFECTION ASSAY - IC50) was determined as 7.66 µM.

On to `COc1ccccc1NS(=O)(=O)c1ccc2oc(Nc3ccc(Cl)c(C(F)(F)F)c3)nc2c1`, for which the IC90 is greater than 10 µM. Also, the IC50 under setting [1] is greater than 10 µM.

As to `COc1ccc(OCCCN2CCN(C(=O)C34CC5CC(CC(C5)C3)C4)CC2)cc1`, the IC90 was greater than 10 µM. Also, the IC50 under setting [1] was greater than 10 µM.

`CN(C)S(=O)(=O)c1ccc2oc(SCC(=O)Nc3cc(C(C)(C)C)no3)nc2c1`: the IC90 amounted to 3.96 µM. In addition, where the note is “HEPG2TOX_HILL_SLOPE 11.6, HEPG2TOX_R_SQUARED 0.793, PBLUC_HILL_SLOPE 13.5, PBLUC_R_SQUARED 0.437, read-out: LUCIFERASE INFECTION ASSAY - IC50”, the IC50 is 3.36 µM.

For `O=C(Nc1nnc(-c2ccco2)s1)c1csc(COc2ccc(Cl)cc2)n1`, the IC90 is greater than 10 µM. Further, the IC50 (PBLUC_HILL_SLOPE 1.45, PBLUC_R_SQUARED 0.301, read-out: LUCIFERASE INFECTION ASSAY - IC50) came out at 4.28 µM.

On to `CC(C)n1cc(-c2nc(C(=O)NNC(=O)c3ccccc3Cl)cs2)c(=O)n(Cc2ccccc2)c1=O`, for which the IC90 is greater than 6.3 µM. In addition, the IC50 under setting [1] is greater than 6.3 µM.

On to `COc1cccc(-c2cc(=O)[nH]c(Nc3nc(C)c4cc(C)ccc4n3)n2)c1`, for which the IC90 is greater than 8.84 µM. For the setting “HEPG2TOX_HILL_SLOPE 0.454, HEPG2TOX_R_SQUARED 0.693, PBLUC_HILL_SLOPE 1.82, PBLUC_R_SQUARED 0.608, read-out: LUCIFERASE INFECTION ASSAY - IC50”, the IC50 is 2.67 µM.

As for `O=C(c1ccco1)N1CCc2nc(NCc3cccc(Cl)c3)ncc2C1`, the IC90 is 8.86 µM. Moreover, the IC50 (PBLUC_HILL_SLOPE 14.7, PBLUC_R_SQUARED 0.24, read-out: LUCIFERASE INFECTION ASSAY - IC50) stood at 7.63 µM.

Consider `Oc1ccc(Br)cc1/C=C/c1ccc2cccc(O)c2n1`, for which the IC90 was greater than 9.64 µM. Besides, the IC50 (HEPG2TOX_HILL_SLOPE 9.84, HEPG2TOX_R_SQUARED 0.0138, PBLUC_HILL_SLOPE 10.3, PBLUC_R_SQUARED 0.574, read-out: LUCIFERASE INFECTION ASSAY - IC50) is 8.32 µM.

Consider `COc1ccccc1/C=C(/C(=O)OC(C(=O)c1c[nH]c2ccccc12)c1ccccc1)c1ccccc1` (centres undefined), for which the IC90 was greater than 10 µM. Also, the IC50 (FFLUC_HILL_SLOPE 11.3, FFLUC_R_SQUARED 0.353, PBLUC_HILL_SLOPE 1.04, PBLUC_R_SQUARED 0.705, read-out: LUCIFERASE INFECTION ASSAY - IC50) stood at 3.6 µM.

Turning to `O=C(NCCN1CCN(c2ncnc3sc4c(c23)CCC4)CC1)c1ccco1`, the concentration for an effect of 90% (IC90) is greater than 10 µM. Also, the IC50 under setting [1] was greater than 10 µM.

In the case of `COc1cc(-c2ccc3ncc(-c4cccc(C(C)=O)c4)n3n2)cc(OC)c1OC`, the IC90 came out at 1.39 µM. For the same compound, the 50% inhibitory concentration (IC50) (HEPG2TOX_HILL_SLOPE 2.19, HEPG2TOX_R_SQUARED 0.885, PBLUC_HILL_SLOPE 9.54, PBLUC_R_SQUARED 0.57, read-out: LUCIFERASE INFECTION ASSAY - IC50) was 1.11 µM.

Turning to `COc1cc(C(=O)N/N=C2/C(=O)c3cccc4cccc2c34)cc(OC)c1OC`, the concentration for an effect of 90% (IC90) came to 3.67 µM. Further, the IC50 (HEPG2TOX_HILL_SLOPE 1.4, HEPG2TOX_R_SQUARED 0.956, PBLUC_HILL_SLOPE 15.6, PBLUC_R_SQUARED 0.526, read-out: LUCIFERASE INFECTION ASSAY - IC50) came out at 3.19 µM.

Regarding `Cc1nnc(SCc2cc(=O)n3nc(C)c(-c4ccc(F)cc4)c3[nH]2)s1`, the IC90 is greater than 8.52 µM. Where the note is “PBLUC_HILL_SLOPE 8.42, PBLUC_R_SQUARED 0.168, read-out: LUCIFERASE INFECTION ASSAY - IC50”, the half-inhibitory concentration (IC50) amounted to 7.52 µM.

In the case of `CCOC(=O)c1c[nH]c2c(F)cc(F)cc2c1=O`, the IC90 was greater than 13 µM. In addition, under setting [1], the IC50 was greater than 13 µM.

`COc1ccc(CNCc2ccc(N3CCCCCC3)cc2)cc1`: the IC90 is greater than 10 µM. Also, the IC50 (PBLUC_HILL_SLOPE 0.677, PBLUC_R_SQUARED 0.204, read-out: LUCIFERASE INFECTION ASSAY - IC50) was greater than 10 µM.

Regarding `O=C(Cc1csc(NC(=O)c2ccccc2)n1)Nc1ncccc1O`, the IC90 was greater than 10 µM. In addition, the IC50 under setting [1] was greater than 10 µM.

Turning to `Cc1cc(C)cc(NC(=O)CCN2c3ccccc3Sc3ccccc32)c1`, the IC90 was greater than 10 µM. For the same compound, where the note is “FFLUC_HILL_SLOPE 15.9, FFLUC_R_SQUARED 0.234, read-out: LUCIFERASE INFECTION ASSAY - IC50”, the IC50 is greater than 10 µM.

As to `C=S(=O)(NC(=O)CSc1nnc(C(F)(F)F)n1C)c1ccc(Cl)cc1` (centres undefined), the IC90 was greater than 7.99 µM. The IC50 (FFLUC_HILL_SLOPE 23.5, FFLUC_R_SQUARED 0.129, read-out: LUCIFERASE INFECTION ASSAY - IC50) is greater than 7.99 µM.

As to `Cc1ccc2nc(-c3ccc(NC(=S)NCC(C)(C)CN(C)C)cc3)sc2c1`, the IC90 was greater than 10 µM. The concentration for half-maximal inhibition (IC50) (PBLUC_HILL_SLOPE 12.9, PBLUC_R_SQUARED 0.101, read-out: LUCIFERASE INFECTION ASSAY - IC50) was found to be 9.07 µM.
